This is an account of results in ChEMBL document CHEMBL1201862, “PubChem BioAssay data set” (2004).

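In this assay, cells in 96-well plates receive the compound at five concentrations for 48 hours. Endpoints are linearly interpolated between the surrounding concentrations. GI50 marks 50% less growth.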 The source made the active and inactive calls. Cut-off read from the data, not from the text of the source: active = GI50 up to about 1.1 µM and inactive = higher. Some results are limits rather than exact numbers.

Some test systems named below: A549; CAKI-1; CCRF-CEM; COLO 205; EKVX; HCT-116; HL-60; IGROV-1; M14; NCI-H226; NCI-H460; OVCAR-4; OVCAR-5; SK-MEL-28; SK-MEL-5; SK-OV-3; SNB-19; SR; U-251; UACC-62.
Holding throughout (assay): NCI-60 cell line screen, 48 h

As to `CN(C)c1ccc(C=c2c3ccccc3n3c2c2c([n+]3C)CCCC2)cc1`, the GI50 is 0.0728 µM (active) with A549; 0.908 µM (active) with CAKI-1; 0.0465 µM (active) in the experiment with CCRF-CEM; 0.0301 µM (active) in the experiment with COLO 205; 0.0227 µM (active) in the experiment on EKVX; 0.0537 µM (active) with HCT-116. The GI50 with HL-60 is 0.075 µM (active); in the experiment on IGROV-1, 0.138 µM (active); in the experiment on M14 it was 0.208 µM (active); with NCI-H226, 0.447 µM (active); in the experiment on NCI-H460, 0.11 µM (active); in the experiment with OVCAR-4, 0.255 µM (active). Further, the GI50 in the experiment on OVCAR-5 was 0.463 µM (active); with SK-MEL-28, 0.542 µM (active); with SK-MEL-5, 0.0687 µM (active); with SK-OV-3 it was 0.32 µM (active); with SNB-19 it was 0.0698 µM (active); in the experiment on SR, 0.0233 µM (active). The GI50 in the experiment with U-251 is 0.0223 µM (active); in the experiment on UACC-62, 0.42 µM (active).

For the compound `COC(=O)C1=C(C)NC(C)=C([N+](=O)[O-])C1c1cccc(N=O)c1` (stereo not given), the GI50 with A549 is 18.9 µM (inactive); in the experiment on CAKI-1, 7.96 µM (inactive); with CCRF-CEM, 4.83 µM (inactive); in the experiment on COLO 205 it was 15.7 µM (inactive); in the experiment on EKVX, 21.1 µM (inactive); in the experiment with HCT-116, 10.8 µM (inactive). In addition, the GI50 is > 100 µM (inactive) with HL-60; 16 µM (inactive) in the experiment on IGROV-1; 13.1 µM (inactive) in the experiment on M14; 22 µM (inactive) in the experiment on NCI-H226; 16.5 µM (inactive) in the experiment with NCI-H460; 11.9 µM (inactive) in the experiment on OVCAR-4. The GI50 in the experiment on OVCAR-5 was 16.9 µM (inactive); in the experiment on SK-MEL-28, 17.9 µM (inactive); with SK-MEL-5, 15.6 µM (inactive); with SK-OV-3, 21.9 µM (inactive); with SNB-19 it was 29.7 µM (inactive); with SR, 3.36 µM (inactive). Moreover, the GI50 in the experiment with U-251 was 18 µM (inactive); in the experiment on UACC-62, 15.5 µM (inactive).

In the case of `O=C(O[C@H]1[C@@H](O)[C@H](n2cnc3c(Cl)ncnc32)O[C@@H]1COC(c1ccccc1)(c1ccccc1)c1ccccc1)c1ccccc1`, the GI50 in the experiment on A549 is 56.1 µM (inactive); in the experiment with CAKI-1, 2.62 µM (inactive); in the experiment on CCRF-CEM, 3.55 µM (inactive); in the experiment on COLO 205, 15.9 µM (inactive); with EKVX, 14.8 µM (inactive); in the experiment with HCT-116, 40.9 µM (inactive). Moreover, the GI50 was 9.91 µM (inactive) in the experiment with HL-60; 15.9 µM (inactive) in the experiment with IGROV-1; 26.3 µM (inactive) with M14; 13 µM (inactive) in the experiment on NCI-H226; 17.5 µM (inactive) with NCI-H460; 30.3 µM (inactive) with OVCAR-4. Also, the GI50 with OVCAR-5 was > 100 µM (inactive); with SK-MEL-28 it was 46.3 µM (inactive); in the experiment with SK-MEL-5, 8.47 µM (inactive); in the experiment on SK-OV-3 it was 71 µM (inactive); with SNB-19, 39.3 µM (inactive); in the experiment with SR, 2.67 µM (inactive). Moreover, the GI50 was 22.8 µM (inactive) in the experiment with U-251 and 39.5 µM (inactive) in the experiment with UACC-62.

Turning to `COc1ccc2nc3cc(Cl)ccc3c(NCCC(=O)OCC(O)C(O)C(O[C@H](C)C(=O)NC(C)C(=O)NC(CCC(N)=O)C(=O)OCc3ccccc3)C(C=O)NC(C)=O)c2c1` (stereo not given in full), the GI50 in the experiment on A549 is 17.4 µM (inactive); in the experiment on CAKI-1, 20.2 µM (inactive); in the experiment with CCRF-CEM, 23.2 µM (inactive); in the experiment with COLO 205 it was 18.3 µM (inactive); in the experiment on EKVX it was 18.4 µM (inactive); in the experiment on HCT-116, 18 µM (inactive). For the same compound, the GI50 was 25.1 µM (inactive) in the experiment on HL-60; 16 µM (inactive) in the experiment with IGROV-1; 19.5 µM (inactive) with M14; 22.5 µM (inactive) in the experiment on NCI-H226; 16.2 µM (inactive) in the experiment on NCI-H460; 20 µM (inactive) in the experiment on OVCAR-4. Moreover, the GI50 was 23.8 µM (inactive) with OVCAR-5; 17.7 µM (inactive) with SK-MEL-28; 16.6 µM (inactive) in the experiment on SK-MEL-5; 18.8 µM (inactive) with SK-OV-3; 24.7 µM (inactive) in the experiment with SNB-19; 4.03 µM (inactive) in the experiment with SR. For the same compound, the GI50 in the experiment with U-251 is 18.2 µM (inactive); in the experiment with UACC-62, 17.9 µM (inactive).

For `O=C1c2ccccc2C2(O)Oc3cccc(O)c3C12O` (stereo not given), the GI50 in the experiment with A549, in the experiment on CAKI-1, with CCRF-CEM, in the experiment on COLO 205, with EKVX and in the experiment on HCT-116 was > 100 µM (inactive) throughout. In addition, the GI50 with HL-60, with IGROV-1, in the experiment with M14, in the experiment with NCI-H226, in the experiment with NCI-H460 and in the experiment with OVCAR-4 was > 100 µM (inactive) in each case. For the same compound, the GI50 in the experiment with OVCAR-5, in the experiment with SK-MEL-28, with SK-MEL-5, in the experiment on SK-OV-3, in the experiment with SNB-19 and with SR was > 100 µM (inactive) in each case. Further, the GI50 is > 100 µM (inactive) with U-251 and 62.5 µM (inactive) with UACC-62.

Take `Cc1cccc(C(C)C)c1NC(=O)CC1C(=O)Nc2ccccc2S1(=O)=O` (stereo not given): the GI50 was 16.8 µM (inactive) with A549; 6.58 µM (inactive) in the experiment on CAKI-1; 7.24 µM (inactive) in the experiment on CCRF-CEM; 25.2 µM (inactive) in the experiment with COLO 205; 16 µM (inactive) with EKVX; 15.7 µM (inactive) with HCT-116. Moreover, the GI50 in the experiment on HL-60 is 5.28 µM (inactive); in the experiment with IGROV-1 it was 22.5 µM (inactive); with M14, 15.5 µM (inactive); in the experiment with NCI-H226, 18.7 µM (inactive); with NCI-H460, 12.8 µM (inactive); in the experiment on OVCAR-4, 12.2 µM (inactive). Also, the GI50 in the experiment on OVCAR-5 was 39.7 µM (inactive); with SK-MEL-28 it was 17.7 µM (inactive); in the experiment with SK-MEL-5, 12.3 µM (inactive); with SK-OV-3 it was > 100 µM (inactive); with SNB-19 it was 29.2 µM (inactive); in the experiment with SR, 1.48 µM (inactive). In addition, the GI50 in the experiment on U-251 was 24.2 µM (inactive); in the experiment on UACC-62, 11.8 µM (inactive).

As to `Cc1ccc(NC(=O)/C(C#N)=C/c2ccccc2)c(C)c1`, the GI50 in the experiment on A549, in the experiment on CAKI-1, in the experiment on CCRF-CEM, in the experiment with COLO 205, in the experiment with EKVX and in the experiment with HCT-116 was > 100 µM (inactive) throughout. The GI50 with HL-60, in the experiment with IGROV-1, with M14, with NCI-H226, with NCI-H460 and in the experiment on OVCAR-4 was > 100 µM (inactive) each time. In addition, the GI50 with OVCAR-5, with SK-MEL-28, with SK-MEL-5, in the experiment with SK-OV-3, in the experiment on SNB-19 and in the experiment on SR was > 100 µM (inactive) in each case. Further, the GI50 in the experiment with U-251 and with UACC-62 was > 100 µM (inactive) throughout.

Take `CCOc1cnc(C(O)(c2ccccc2)c2ccccc2)o1`: the GI50 with A549, in the experiment with CAKI-1, in the experiment with CCRF-CEM, with COLO 205, with EKVX and in the experiment with HCT-116 was > 100 µM (inactive) each time. Also, the GI50 in the experiment with HL-60, in the experiment with IGROV-1, in the experiment on M14, in the experiment on NCI-H226, in the experiment with NCI-H460 and in the experiment with OVCAR-4 was > 100 µM (inactive) each time. Moreover, the GI50 in the experiment on OVCAR-5, with SK-MEL-28, with SK-MEL-5, in the experiment with SK-OV-3, with SNB-19 and in the experiment with SR was > 100 µM (inactive) throughout. In addition, the GI50 with U-251 and in the experiment on UACC-62 was > 100 µM (inactive) each time.

In the case of `COc1ccc(C(=O)C(c2ccc(OC)cc2)C2C(=O)Oc3ccccc32)cc1` (stereo not given), the GI50 in the experiment on A549, in the experiment with CAKI-1, in the experiment on CCRF-CEM, with COLO 205, in the experiment with EKVX and in the experiment on HCT-116 was > 10 µM (inactive) throughout. Besides, the GI50 is > 10 µM (inactive) in the experiment with HL-60; > 10 µM (inactive) in the experiment on IGROV-1; > 10 µM (inactive) with M14; > 10 µM (inactive) with NCI-H226; > 10 µM (inactive) in the experiment with NCI-H460; 5.98 µM (inactive) in the experiment on OVCAR-4. Besides, the GI50 in the experiment on OVCAR-5, in the experiment on SK-MEL-28, in the experiment on SK-MEL-5, in the experiment on SK-OV-3, in the experiment on SNB-19 and in the experiment on SR was > 10 µM (inactive) each time. The GI50 in the experiment with U-251 and in the experiment on UACC-62 was > 10 µM (inactive) each time.

With `O=C(CSc1c2ccccc2nc2ccccc12)Nc1ccccc1-c1ccccc1NC(=O)CSc1c2ccccc2nc2ccccc12`, the GI50 in the experiment on A549 was 13.3 µM (inactive); in the experiment on CAKI-1, 26.6 µM (inactive); in the experiment on CCRF-CEM it was > 24.6 µM (inactive); in the experiment with COLO 205 it was 30.1 µM (inactive); with EKVX, 21.4 µM (inactive); in the experiment on HCT-116, 27.2 µM (inactive). The GI50 in the experiment with HL-60 is 6.17 µM (inactive); with IGROV-1 it was 18.4 µM (inactive); in the experiment on M14, 24.4 µM (inactive); in the experiment with NCI-H226, 29.2 µM (inactive); with NCI-H460, 29 µM (inactive); in the experiment with OVCAR-4, 1.48 µM (inactive). For the same compound, the GI50 is 56.6 µM (inactive) in the experiment on OVCAR-5; 20.8 µM (inactive) in the experiment on SK-MEL-28; 12.8 µM (inactive) in the experiment on SK-MEL-5; 80.4 µM (inactive) in the experiment on SK-OV-3; 22.4 µM (inactive) in the experiment on SNB-19; 11.1 µM (inactive) in the experiment on SR. The results for the GI50 in the experiment with U-251 and in the experiment with UACC-62 were 26.7 µM (inactive) and 18 µM (inactive), respectively.
